Data set [1] concerns Microphthalmia-associated transcription factor (MITF). Put plainly: MITF and phosphorylated MITF in B16 cells (Western). In kind it is cell-based, mouse. Conditions: 2 h; for (Phosphorylated MITF)/(MITF): control 0.90; for Phosphorylated MITF / MITF: β-actin regarded as 100%; for Phosphorylated MITF: control 73; for MITF: control 81. As for the experimental part:
Test solutions were prepared by dissolving ascorbic acid 2-glucoside (a reagent grade specimen commercialized by Hayashibara Co., Ltd., Okayama, Japan) or L-ascorbic acid (a special reagent grade specimen commercialized by Wako Pure Chemical Industries, Ltd., Tokyo, Japan) in Dulbecco's MEM medium supplemented with 10% v/v fetal calf serum and an antibiotic (abbreviated as “D-MEM medium”, hereinafter) to give a final concentration of 2.0 or 8.0 mM.
Continuously-cultivated B16 cells in D-MEM medium were collected, resuspended in D-MEM medium, inoculated to 6-well plates in an amount of 1×10^5 cells/2 mL/well, and cultured for 24 hours. Thereafter, the culture supernatants were removed by sucking, and any of the test solutions was added to each plate in a volume of 2 mL/well, followed by culturing the cells for two hours. As a control, cells in other plates were added with only D-MEM medium in a volume of 2 mL/plate and cultured for two hours. To each plate, which had been removed its culture supernatant, an ice-chilled Dulbecco's PBS (−), commercialized by Nissui Pharmaceutical Co., Ltd., Tokyo, Japan, was added to wash cells, and the resulting cells were added with a SDS-sample buffer containing 62.5 mM Tris-HCl (pH 6.8), 2% w/v SDS, 10% w/v glycerol, 50 mM dithiothreitol (DTT), and 0.01% w/v bromophenol blue in a volume of 0.1 mL/well, and collected with a scraper. The resulting cell suspension was treated with an ultrasonicator, commercialized by Osminics Inc., Minnesota, USA, and subjected to SDS-polyacrylamide gel electrophoresis. The proteins in the gel were electrically transferred to a nitrocellulose membrane and allowed to sequentially react with a first antibody (Anti-phospho-MITF […] or Anti MITF), a secondary antibody, and LumiGLO™ in this order, followed by allowing to expose an X-ray film for detecting MITF positive bands. The bands thus detected were subjected to band strength analysis using Scion Image to determine the quantity of MITF and phosphorylated MITF. For every B16 cell culture, a 5% v/v CO2 incubator was used. Relative amounts of MITF and phosphorylated MITF and the ratio of phosphorylated MITF against MITF were determined when the level of β-actin in B16 cells upon culturing with each of the test solutions was regarded as 100%.

The next data set has as its system glutathione. Put plainly: Production level of glutathione in NHEK cells. In kind it is cell-based, human. The following applies: 24 h, control = 100%. How it is done: Continuously-cultivated NHEK cells in EpiLife medium were collected, resuspended in EpiLife medium, inoculated to culture plates with 10 cm in diameter in an amount of 1×10^6 cells/10 mL/plate, and cultured for 24 hours. Thereafter, each culture supernatant was removed by sucking, and any of the test solutions was added to the remaining cells in a volume of 10 mL/plate, followed by culturing the cells for another 24 hours. As a control, cells were added with only D-MEM medium in an amount of 10 mL/plate and cultured for 24 hours. Each culture supernatant was removed from each plate, then ice-chilled Dulbecco's PBS (−), commercialized by Nissui Pharmaceutical Co., Ltd., Tokyo, Japan, was added to rinse the remaining cells, which were then collected with a scraper. Glutathione was quantified on “Glutathione Assay Kit”, a product name of glutathione assay kit commercialzied by BioVision, Inc., San Francisco, USA. In this experiment, the control and test solutions in respective three plates were assayed for glutathione production level for each plate and averaged for obtaining the glutathione production level of each solution. A 5% v/v CO2 incubator was used for culturing NHEK cells in any case. Relative values of test samples were determined with the proviso that the production levels of reduced glutathione and total glutathione in NHEK cells that had been cultured with only EpiLife medium were respectively regarded as 100%, and the results are in Table 5.

For a further data set, the system named is cornified envelope (CE). The experiment in a line: Production of cornified envelope (CE) in NHEK cells. The following applies: 5 days, control 0.63 ± 0.07. In kind it is cell-based, human. As for the experimental part: The following experiment was conducted to examine the effect of ascorbic acid 2-glucoside on the production of CE in a keratinous layer. As a model for typical normal human epidermal cells, normal human epidermal keratinocytes from neonatal foreskin, commercialized by Kurabo Industries Ltd., Osaka, Japan, and abbreviated as “NHEK cells”, hereinafter, were suspended in EpiLife medium (pH 7.4), commercialized by Invitrogen Corporation, Calif., USA, and called “EpiLife medium”, hereinafter, inoculated to 12-well microplates at a cell density of 1×10^5 cells/well, and cultured under the conditions of 37° C. and 5% v/v CO2 overnight. Thereafter, “AA2G”, a product name of a particulate composition containing anhydrous crystalline ascorbic acid 2-glucoside, commercialized by Hayashibara Co., Ltd., Okayama, Japan, was added to each well to give a final concentration of 0.5 or 1 mM, or, as a positive control, CaCl2 was added to each well to give a final concentration of 1 mM; and the cells in each well were cultured at 37° C. for five days while replacing the medium in each well with a fresh preparation of EpiLife medium having the above-identified concentration of ascorbic acid 2-glucoside or CaCl2. Assay for intracellular CE content was carried out in accordance with Tatsuya Hasegawa et al., “Lipids”, Vol. 46, pp. 529 to 535, 2011. After completion of the culture, the culture supernatant in each well was immediately removed, followed by detaching and extracting the cells adhered to the wall of each well by means of pipetting with phosphate buffered saline (PBS, pH 7.4) containing 2% w/v sodium dodecyl sulfate (SDS), and collecting insoluble fractions by centrifugation at 15,000 rpm for 10 min. […] The measured values were regarded as CE production levels. […]

Data set [2] in a line: pH of aqueous solutions of compositions. The class given is physicochemical. Conditions: 2 g (d.s.b.) dissolved in 20 mL refined water; ratio by mass (anhydrous crystalline sodium salt):(anhydrous crystal).

The structures appear in SMILES notation.

For the compound `O=C1O[C@H]([C@@H](O)CO)C(O)=C1O[C@H]1O[C@H](CO)[C@@H](O)[C@H](O)[C@H]1O` [ascorbic acid 2-glucoside, 2-O-α-D-glucosyl-L-ascorbic acid], the “(Phosphorylated MITF)/(MITF)” value in data set [1] (2.0 mM) is 0.60; in data set [1] (8.0 mM), 0.36. In addition, the “Phosphorylated MITF” value came to 59% in data set [1] (2.0 mM) and 36% in data set [1] (8.0 mM). Moreover, the results for the MITF in data set [1] (2.0 mM) and in data set [1] (8.0 mM) were 99% and 101%, respectively. For the same compound, the Reduced glutathione in the data set on glutathione (0.5 mM) was found to be 106%; with glutathione (1.0 mM), 111%; with glutathione (2.0 mM), 117%. For the same compound, the Total glutathione in the data set on glutathione (0.5 mM) came out at 106%; in the data set on glutathione (1.0 mM) it was 111%; in the data set on glutathione (2.0 mM), 117%. Further, the “OD310nm Value (CE Production level)” value with cornified envelope (CE) (0.5 mM) is reported as 0.78 ± 0.05; with cornified envelope (CE) (1 mM) it was 1.04 ± 0.11. Further, the pH in data set [2] is 1.7.

The values above are taken from patent publication US10111822B2, “External dermal composition for anti-ageing and method for producing the same” (Hayashibara Co., Ltd., priority 2012, dated 2018).
